Assay results: article PMC3038857, “Using Nuclear Receptor Activity to Stratify Hepatocarcinogens” (PLoS ONE, 2011)
Read-outs that look alike come from different tables or passages of the source.

Tests used:
Mouse Liver = details: ref ToxRefDB, cited from earlier work
AR (androgen receptor) [1] = biological target: T1, AR (androgen receptor) (Homo sapiens, UniProt P10275); assay: NCGC_AR_Agonist: GAL4 BLAM Reporter gene assay: AR; assay type: cell-based; details: agonist mode; scale not given, looks like -log10 of molar active concentration; 0 = no activity
T1 construct: expressed in transfected cells
T1 sequence (P10275 1-920): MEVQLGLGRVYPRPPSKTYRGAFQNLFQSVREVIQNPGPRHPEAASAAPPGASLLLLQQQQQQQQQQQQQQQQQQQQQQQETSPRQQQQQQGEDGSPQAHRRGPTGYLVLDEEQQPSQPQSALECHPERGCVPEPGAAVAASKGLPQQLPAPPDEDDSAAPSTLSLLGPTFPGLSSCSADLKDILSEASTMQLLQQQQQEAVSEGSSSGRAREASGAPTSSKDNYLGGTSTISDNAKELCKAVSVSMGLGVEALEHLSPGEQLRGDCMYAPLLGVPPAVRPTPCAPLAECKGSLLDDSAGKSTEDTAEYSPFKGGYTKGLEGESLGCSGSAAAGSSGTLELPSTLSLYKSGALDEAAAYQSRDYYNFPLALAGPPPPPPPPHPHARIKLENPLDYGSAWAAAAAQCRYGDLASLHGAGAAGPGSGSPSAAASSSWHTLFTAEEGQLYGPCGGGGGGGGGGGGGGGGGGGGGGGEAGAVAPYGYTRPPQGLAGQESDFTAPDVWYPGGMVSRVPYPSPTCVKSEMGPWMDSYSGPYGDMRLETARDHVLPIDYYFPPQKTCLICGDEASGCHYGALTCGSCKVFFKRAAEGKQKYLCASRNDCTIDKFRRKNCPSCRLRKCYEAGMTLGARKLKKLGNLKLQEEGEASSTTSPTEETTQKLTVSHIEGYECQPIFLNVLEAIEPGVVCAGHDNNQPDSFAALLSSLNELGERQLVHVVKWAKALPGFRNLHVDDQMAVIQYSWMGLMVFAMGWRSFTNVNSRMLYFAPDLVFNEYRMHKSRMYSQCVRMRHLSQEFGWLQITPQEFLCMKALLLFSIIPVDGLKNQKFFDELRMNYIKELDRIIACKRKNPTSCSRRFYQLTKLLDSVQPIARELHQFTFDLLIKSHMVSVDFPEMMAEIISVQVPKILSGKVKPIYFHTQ
Experimental: (§1) These assays measure binding constants and enzyme inhibition values for nuclear receptors. The targets include [drawing 67] , [drawing 68] , [drawing 69] , [drawing 70] , [drawing 71] , [drawing 72] , [drawing 73] , [drawing 74] , [drawing 75] and [drawing 76] . Each of the nuclear receptor targets was measured in agonist mode. Assays were run at the NIH Chemical Genomics Center (Rockville, MD).
(§2) Cell-based HTS Assays: These assays measuring binding constants and enzyme inhibition values for nuclear receptors. The targets include AR, ER, FXR, LXR, PPARα, PPARδ, PPARγ, RXRα, RXRβ and PXR. Each of the nuclear receptor targets was measured in both agonist and antagonist mode, but the antagonist data is still undergoing analysis due to possible interference between cytotoxicity and assay activity, so antagonist mode data were not used in the present analysis. Assays were run at the NIH Chemical Genomics Center (Rockville, MD) as part of the Tox21 collaboration. […] The R^2 was required to be ≥0.5. Values where only the highest concentration exceeded 50% activity were excluded to eliminate weak or false positives. Detailed description of the methods, data and analysis methods for this dataset will be presented in a separate publication.

AR (androgen receptor) [2] = biological target: T1, AR (androgen receptor); assay: NCGC_AR_Antagonist: GAL4 BLAM Reporter gene assay: AR; assay type: cell-based; details: antagonist mode
Experimental: as §1, §2

[3] = mouse chronic study, liver, neoplastic lesion, coded 6 / Inf / 0, code not explained here
[4] = scale not given, looks like -log10 of molar active concentration, 0 = no activity

Row | Compound | CHR_Mouse_Liver_3_NeoplasticLesion (Mouse Liver; [3]) | NCGC_AR_Agonist (AR (androgen receptor) [1]) | NCGC_AR_Antagonist (AR (androgen receptor) [2]; [4]) | also measured
1 | CC(C)N1C(=O)c2ccccc2NS1(=O)=O [r37] | 6 |  |  | 
2 | COc1ccc(-c2ccccc2)cc1NNC(=O)OC(C)C [r38] | 6 | 0 | 0 | 
3 | Cc1c(COC(=O)C2C(/C=C(\Cl)C(F)(F)F)C2(C)C)cccc1-c1ccccc1 (stereo not shown) [r39] | 6 |  |  | 
4 | CC(C)(c1ccc(O)cc1)c1ccc(O)cc1 [r40] |  | 0 | 4.137 | 
5 | CCC(C)n1c(=O)[nH]c(C)c(Br)c1=O (stereo not shown) [r43] | 6 |  |  | 
6 | N#Cc1cc(Br)c(O)c(Br)c1 [r44] | 6 | 0 | 0 | 
7 | CC(C)N1C(=O)N(c2ccccc2)CS/C1=N\C(C)(C)C [r45] | 6 | 0 | 0 | 
8 | CCCCOCN(C(=O)CCl)c1c(CC)cccc1CC [r46] |  | 0 | 4.347 | 
9 | CCSC(=O)N(CC(C)C)CC(C)C [r49] |  | 0 | 0 | 
10 | CNC(=O)Oc1cccc2ccccc12 [r52] | 6 |  |  | 
11 | CC1=C(C(=O)Nc2ccccc2)SCCO1 [r53] |  | 0 | 0 | 
12 | Cc1ccccc1CO[C@@H]1C[C@@]2(C(C)C)CC[C@]1(C)O2 [r64] | 6 | 0 | 0 | 
13 | CCCC1COC(Cn2cncn2)(c2ccc(Cl)cc2Cl)O1 (stereo not shown) [r262] |  |  |  | CHR_Mouse_Liver_3_NeoplasticLesion (Mouse Liver; mouse, chronic study): 6
14 | CC(C)=CC1C(C(=O)OCc2coc(Cc3ccccc3)c2)C1(C)C (stereo not shown) [r280] |  |  |  | CHR_Mouse_Liver_3_NeoplasticLesion (Mouse Liver; chronic study, mouse liver): 6
15 | CC(C)Oc1cc(-n2nc(C(C)(C)C)oc2=O)c(Cl)cc1Cl [row 225] |  |  |  | NCGC_AR_Antagonist (AR (androgen receptor) [2]): 4.167; CHR_Mouse_Liver_3_NeoplasticLesion (Mouse Liver; chronic mouse study, liver): 6
